In article PMC10141604, “Small-Molecule Inhibition of Androgen Receptor Dimerization as a Strategy against Prostate Cancer” (ACS Central Science, 2023):

Experiments:
Assay type in all cases: cell-based
MR = target: T1, MR (Homo sapiens, UniProt P08235); assay: Luciferase reporter assay for MR (HEK293T cells); details: 10 μM, 5 nM aldosterone
T1 construct: host or cells: HEK293T
T1 sequence (P08235 1-984): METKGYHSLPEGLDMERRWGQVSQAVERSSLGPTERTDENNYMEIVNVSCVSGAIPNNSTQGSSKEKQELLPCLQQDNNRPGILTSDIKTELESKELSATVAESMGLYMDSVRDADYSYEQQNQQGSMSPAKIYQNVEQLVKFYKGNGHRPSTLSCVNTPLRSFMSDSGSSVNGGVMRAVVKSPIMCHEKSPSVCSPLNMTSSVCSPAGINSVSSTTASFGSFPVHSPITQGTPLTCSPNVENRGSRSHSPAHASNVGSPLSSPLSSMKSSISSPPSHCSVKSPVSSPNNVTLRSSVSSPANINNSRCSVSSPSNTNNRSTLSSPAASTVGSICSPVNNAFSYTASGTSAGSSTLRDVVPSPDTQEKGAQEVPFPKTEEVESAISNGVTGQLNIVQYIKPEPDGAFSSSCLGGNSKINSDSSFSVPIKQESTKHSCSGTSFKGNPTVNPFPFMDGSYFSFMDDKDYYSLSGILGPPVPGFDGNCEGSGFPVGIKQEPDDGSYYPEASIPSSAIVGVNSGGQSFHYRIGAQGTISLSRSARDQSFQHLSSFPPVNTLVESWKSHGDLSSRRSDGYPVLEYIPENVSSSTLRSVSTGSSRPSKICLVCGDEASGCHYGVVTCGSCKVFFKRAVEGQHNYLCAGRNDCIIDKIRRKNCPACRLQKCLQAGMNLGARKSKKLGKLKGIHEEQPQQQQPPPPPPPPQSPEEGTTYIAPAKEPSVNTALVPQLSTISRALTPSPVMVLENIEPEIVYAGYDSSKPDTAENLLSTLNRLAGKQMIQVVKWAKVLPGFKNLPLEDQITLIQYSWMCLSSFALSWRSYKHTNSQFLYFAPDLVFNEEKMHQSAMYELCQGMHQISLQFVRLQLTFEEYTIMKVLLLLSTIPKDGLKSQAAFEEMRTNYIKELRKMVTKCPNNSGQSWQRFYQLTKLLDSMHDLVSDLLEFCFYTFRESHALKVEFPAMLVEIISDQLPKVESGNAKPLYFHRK
Experimental: (§1) Luciferase Reporter Assays for PR, GR, and MR
(§2) PC3, HeLa, and HEK293T cells were cultured using 5% CSS RPMI-1640, 5% CSS RPMI-1640 and 10% FBS DMEM media in 96-well plates for 24 h, respectively. For PR induction, PC3 (1 × 10^4 cells/well) were transfected with 50 ng pcDNA3-PRB (#89130, Addgene), 24 ng pGL4.36[luc2P MMTV Hygro] (Promega) and 5 ng Renilla using HG-TransGeneTM transfection reagent (#TG-10012, Genomeditech) for 4 h. For GR induction, Hela (1 × 10^4 cells/well) were transfected with 71 ng pCMV -GR11 (#89105, Addgene), 24 ng pGL4.36[luc2P MMTV Hygro] (Promega) and 5 ng Renilla using lip3000 transfection reagent (#L3000075, Thermofisher) for 24 h. For MR induction, HEK293T (1 × 10^4 cells/well) were transfected with 71 ng pCMV-MR gifted by Liu et al. 28, 24 ng of pGL4.36[luc2P MMTV Hygro] (Promega) and 5 ng Renilla using lip3000 transfec tion reagent for 24 h. For the antagonistic models, 10 nM /well progesterone for PC3 cells , 1 nM/well dexamethasone for HeLa, and 5 nM/well aldosterone for HEK293T cells were added to stimulate the cells. Meanwhile, each cell line was treated with a series concentration of compounds (0.4, 2, and 10 μM). For the agonistic models, the cells were directly treated with the compounds without any hormones. Endogenous hormones progesterone, dexamethasone, and aldosterone were considered as agonists for PR, GR, and MR, respectively. The luciferase activities were assessed using the Dual-Glo Luciferase system (#E1910, Promega). […]

PR = target: T2, PR (Homo sapiens, UniProt P06401); assay: Luciferase reporter assay for PR (PC3 cells); details: 10 μM, 10 nM progesterone
T2 construct: host or cells: PC3
T2 sequence (P06401 1-933): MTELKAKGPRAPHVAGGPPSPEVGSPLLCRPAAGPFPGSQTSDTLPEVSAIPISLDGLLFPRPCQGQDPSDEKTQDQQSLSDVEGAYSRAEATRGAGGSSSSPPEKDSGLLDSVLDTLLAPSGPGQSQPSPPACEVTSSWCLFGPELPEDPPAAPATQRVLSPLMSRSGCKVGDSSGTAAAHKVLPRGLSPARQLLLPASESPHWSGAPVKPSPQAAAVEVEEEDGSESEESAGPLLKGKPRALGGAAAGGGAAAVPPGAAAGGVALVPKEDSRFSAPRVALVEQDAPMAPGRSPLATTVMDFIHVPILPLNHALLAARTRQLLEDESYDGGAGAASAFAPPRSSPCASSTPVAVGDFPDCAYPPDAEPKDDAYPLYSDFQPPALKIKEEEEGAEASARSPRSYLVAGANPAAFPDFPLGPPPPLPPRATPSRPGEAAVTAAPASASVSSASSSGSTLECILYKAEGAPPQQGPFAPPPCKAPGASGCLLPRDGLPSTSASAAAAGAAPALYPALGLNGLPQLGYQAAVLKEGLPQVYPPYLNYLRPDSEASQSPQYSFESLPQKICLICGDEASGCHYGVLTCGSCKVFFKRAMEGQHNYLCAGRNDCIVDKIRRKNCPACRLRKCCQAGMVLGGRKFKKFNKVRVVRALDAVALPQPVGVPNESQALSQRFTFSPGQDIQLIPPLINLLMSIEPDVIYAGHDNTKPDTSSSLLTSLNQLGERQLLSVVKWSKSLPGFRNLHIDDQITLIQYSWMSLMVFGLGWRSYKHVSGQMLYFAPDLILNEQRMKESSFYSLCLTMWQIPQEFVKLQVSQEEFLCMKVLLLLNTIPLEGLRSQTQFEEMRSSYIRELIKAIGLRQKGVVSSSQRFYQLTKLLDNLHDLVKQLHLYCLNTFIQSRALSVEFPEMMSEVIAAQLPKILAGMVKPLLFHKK
Experimental: as §1, §2

22RV1 = assay: Clonogenic (colony forming) assay, 22RV1; details: 2 and 20 μM, 16-18 days
Experimental: (§3) 1.5× 10^3 cells/well of LNCaP or 22RV1 were seeded into a 6-well plate. After 1 day
(§4) incubation, the medium of each well was removed and washed thrice using PBS. […]

LNCaP cells = assay: Clonogenic (colony forming) assay, LNCaP; details: 2 and 20 μM, 16-18 days
Experimental: as §3, §4

SMILES | MR antagonistic activity (MR) | PR antagonistic activity (PR) | colony formation of 22RV1 (22RV1) | colony formation of LNCaP cells (LNCaP cells)
CC(=O)Cc1nsc(NC(=O)c2cc(-c3cccc(C(F)(F)F)c3)oc2C)n1 [Compound M17-B15] | not observed | moderate | not | significant inhibitory activities
CNC(=O)c1ccc(N2C(=S)N(c3ccc(C#N)c(C(F)(F)F)c3)C(=O)C2(C)C)cc1F [Enz, enzalutamide, reference compound] | not observed | moderate | not | significant inhibitory activities
